We go through 30 compounds from PMC9298182, “De novo design of type II topoisomerase inhibitors as potential antimicrobial agents targeting a novel binding region” (RSC Medicinal Chemistry, 2022).

Data set [1] has as its target E. coli DNA gyrase (Escherichia coli, UniProt P0AES4+P0AES6). The data set is described as follows: E. coli DNA gyrase supercoiling inhibition assay (gel-based). In kind it is biochemical. The settings on record: for IC50: supercoiling assay, mean of 2 or 3 experiments, semi-quantitative.
Data set [2] has as its system E. coli K12 MG1655. In words: MIC, broth microdilution. It is filed as cell-based. The conditions noted are these: Escherichia coli, MG1655, read-out: E. coli K12 MG1655 MIC.
Data set [3] relates to S. aureus NCIMB 50080. The data set is described as follows: MIC, broth microdilution. It is filed as cell-based. (In general: Dilution methods test growth across graded concentrations, often in twofold steps.)
For data set [4], the target named is T1, E. coli topoisomerase IV (Escherichia coli, UniProt P0AFI2+P20083). The data set is described as follows: biochemical. In kind it is biochemical.
For data set [5], the system named is E. coli K12 MG1655 S83L. The data set is described as follows: MIC, broth microdilution, fluoroquinolone mutant strain. It is filed as cell-based. The conditions noted are these: Escherichia coli, MG1655, read-out: E. coli K12 MG1655 S83L MIC.
Data set [6] deals with E. coli. Details: method as in PMID 28507124. The conditions noted are these: different E. coli strain, printed in column E. coli K12 MG1655; cited from earlier work.
The subject of data set [7] is S. aureus. The conditions noted are these: different S. aureus strain, printed in column S. aureus NCIMB 50080; cited from earlier work.
Data set [8] concerns the target T1, E. coli topoisomerase IV. Details: method as in PMID 28507124. The conditions noted are these: read-out: E. coli topo IV IC50; cited from earlier work.
Setting [9] is: Staphylococcus aureus, NCIMB50080; read-out: S. aureus NCIMB 50080 MIC.

Where two headings read alike, the source gives them in different places. Marks after values point to notes of the source that are not given here.

One may read the IC50 as the concentration that inhibits the measured activity by half. Regarding `COc1ccccc1-c1cccc(C(=O)N[C@@H](CN)c2ccccc2)c1` [Compound 3], half-maximal inhibition in data set [1] (IC50) required 20 µM.

The compound `CCOc1cccc(-c2cc(C(=O)N[C@@H](CN)c3ccccc3)ccc2C)c1` [Compound 25] came in with an IC50 in [1] of 63 µM.

Take `CCOc1cc(C)cc(-c2cc(C(=O)N[C@@H](CN)c3ccccc3)ccc2C)c1` [Compound 26]: in data set [1], the IC50 was 56 µM.

Regarding `NC[C@H](NC(=O)c1cccc(-c2cccc(Cl)c2)c1)c1ccccc1` [Compound 10], in data set [1], the IC50 was 39 µM.

For `CCOc1cccc(-c2cccc(C(=O)N[C@@H](CN)c3ccccc3)c2)c1` [Compound 4], in data set [1], the IC50 was 20 µM.

What is called MIC is the lowest concentration found to suppress growth. As usually defined, the melting point is the temperature, or range, at which the solid turns liquid. In turn, `CCOc1cc(-c2cccc(C(=O)N[C@@H](CN)c3ccccc3)c2)ccc1F.Cl` [Compound 7] displayed a melting point of 219 to 221 °C. Also, the MIC in data set [2] came out at 32 µg/mL. Also, the MIC in [3] (setting [9]) was 16 µg/mL. The compound further gave an IC50 in data set [4] of 64 µM. In addition, in data set [4] (E. coli gyrase vs. E. coli topo IV), the “fold more potent against gyrase than topo IV” value was around 4 fold. The MIC in data set [5] was 32 µg/mL. In data set [1], 17 µM corresponded to half-maximal inhibition (IC50).

In the case of `CC(=O)c1cccc(-c2cccc(C(=O)N[C@@H](CN)c3ccccc3)c2)c1.Cl` [Compound 12], the melting point was ~ 238 °C (dec.). Further, the IC50 in [1] stood at 42 µM.

Compound `Cc1cccc(C(=O)N[C@@H](CN)c2ccccc2)c1` [Compound 22] registered an IC50 in data set [1] above 100 µM.

On to `CCOc1cccc(-c2cccc(C(=O)NC(CN)c3cccc(O)c3)c2)c1F` (stereo not drawn) [Compound 34], for which it took 62 µM to reach half-maximal inhibition in data set [1] (IC50).

As for `NC[C@H](NC(=O)c1cncc(-c2ccccc2Cl)c1)c1ccccc1` [Compound 27], it took 35 µM to reach half-maximal inhibition in data set [1] (IC50).

In the case of `COC(=O)c1cccc(-c2cccc(C(=O)N[C@@H](CN)c3ccccc3)c2)c1.Cl` [Compound 13], the melting point was in the range of 212 to 215 °C. The IC50 in data set [1] stood at 24 µM.

Take `CCOc1cccc(-c2cccc(C(=O)N[C@@H](CN)c3ccccc3)c2)c1F.Cl` [Compound 6, N-[(1R)-2-amino-1-phenylethyl]-3'-ethoxy-2'-fluoro-[1,1'-biphenyl]-3-carboxamide hydrochloride]: the MIC amounted to 64 µg/mL in data set [2], 32 µg/mL in [3] (setting [9]) and 64 µg/mL in data set [5]. The IC50 in [4] is above 100 µM; in data set [1] it was 12 µM. The “fold increase in binding affinity against gyrase vs. unsubstituted 2” value in [1] (relative to compound 2) was found to be 5 fold.

`Cl.NC[C@@H](NC(=O)c1cccc(-c2ccccc2)c1)c1ccccc1` [Compound 28]: the melting point was in the range of 205 to 207 °C. This compound came in with an IC50 in [1] of 76 µM.

`COc1ccccc1-c1cccc(C(=O)NC(CN)c2ccc(O)cc2)c1` (stereo not drawn) [Compound 32] had an IC50 in data set [1] of 45 µM.

On to `Cl.NC[C@H](NC(=O)c1cccc(-c2ccccc2C(F)(F)F)c1)c1ccccc1` [Compound 5], for which the figures for the MIC in [2], in data set [3] (setting [9]) and in [5] were 32 µg/mL, 16 µg/mL and 32 µg/mL, respectively. The IC50 in data set [4] is above 100 µM; in data set [1], 21 µM.

With `Cl.NC[C@H](NC(=O)c1cccc(-c2cccc([N+](=O)[O-])c2)c1)c1ccccc1` [Compound 11], the MIC in [2] was above 128 µg/mL; in [3] (Staphylococcus aureus, NCIMB50080, read-out: S. aureus NCIMB 50080 MIC), above 128 µg/mL; in data set [5], above 128 µg/mL. In addition, the IC50 in data set [4] was 94 µM; in data set [1] it was 73 µM.

For the compound `Cl.NC[C@H](NC(=O)c1cccc(Br)c1)c1ccccc1` [Compound 15], the “fold drop in gyrase activity compared to 2” value in [1] (relative to compound 2) was “at least 3 fold”. The compound further gave an IC50 in [1] above 200 µM.

Consider `Cl.NCC(NC(=O)c1cccc(-c2cccs2)c1)c1ccc(O)cc1` (stereo not drawn) [Compound 1], for which the “E. coli MIC” value in [6] is listed as 8 ^a μg mL^−1. In data set [7], the “S. aureus MIC” value is reported as 8 ^a μg mL^−1. Further, in data set [8], the IC50 was above 540 µM.

`NC[C@H](NC(=O)c1cccc(-c2ccccc2)c1)c1ccccc1` [Compound 2]: the IC50 in data set [1] amounted to 60 µM.

On to `NC[C@H](NC(=O)c1cccc(-c2cccc(O)c2)c1)c1ccccc1` [Compound 8], for which inhibition in data set [1] was half-maximal at 46 µM (IC50).

As for `CCOc1cccc(-c2cccc(C(=O)NC(CN)c3cccc(O)c3)c2)c1` (stereo not drawn) [Compound 33], 41 µM corresponded to half-maximal inhibition in data set [1] (IC50).

`CCOc1cccc(-c2cccc(C(=O)NC(CN)c3ccc(O)cc3)c2)c1F` (stereo not drawn) [Compound 35] displayed an IC50 in data set [1] above 200 µM.

In [1], `Cc1ccccc1C(=O)N[C@@H](CN)c1ccccc1` [Compound 21] had an IC50 above 100 µM.

`Cc1ccc(C(=O)N[C@@H](CN)c2ccccc2)cc1.Cl` [Compound 23]: in data set [1] (at 100 µM, Fig. S2), the “gyrase inhibition judged visually from gel” value is recorded as “some inhibition”. The compound also yielded an IC50 in data set [1] above 100 µM.

As to `COc1ccccc1-c1cc(C(=O)N[C@@H](CN)c2ccccc2)ccc1C` [Compound 24], in data set [1], half-maximal inhibition (IC50) was put at 153 µM.

`CCOc1cccc(-c2cccc(C(=O)N[C@H](CN)c3ccccc3)c2)c1.Cl` [Compound 30]: the “fold drop in gyrase activity of (S)-enantiomer vs. (R)-enantiomer” value in data set [1] (30 vs. 4) is 9 fold. Also, half-maximal inhibition in data set [1] (IC50) required 180 µM.

In turn, `COC(=O)c1ccccc1-c1cccc(C(=O)N[C@@H](CN)c2ccccc2)c1.Cl` [Compound 14] registered a melting point of 145 to 147 °C. In addition, the IC50 in data set [1] came to 41 µM.

The compound `Cl.NC[C@H](NC(=O)c1cccc(-c2ccccc2Cl)c1)c1ccccc1` [Compound 9] gave a melting point of 160.5 to 163 °C. Also, it took 35 µM to reach half-maximal inhibition in data set [1] (IC50).

Turning to `COc1ccccc1-c1cccc(C(=O)N[C@H](CN)c2ccccc2)c1` [Compound 29], the IC50 in data set [1] was 36 µM.

For `COc1ccccc1-c1cccc(C(=O)NC(CN)c2cccc(O)c2)c1.Cl` (stereo not drawn) [Compound 31], the figures for the MIC in data set [2], in data set [3] (setting [9]) and in [5] were above 128 µg/mL, 128 µg/mL and above 128 µg/mL, respectively. Also, the IC50 in data set [4] was above 100 µM; in data set [1] it was 41 µM.
